From ChEMBL document CHEMBL4359898, “Pyrazolo-benzothiazole hybrids: Synthesis, anticancer properties and evaluation of antiangiogenic activity using in vitro VEGFR-2 kinase and in vivo transgenic zebrafish model” (Eur J Med Chem, 2019)

Tests used:
HT-29 = experiment: Cytotoxicity against human HT-29 cells assessed as reduction in cell viability incubated for 72 hrs by MTT assay; settings: HT-29, 72 h
U-87 MG = experiment: Cytotoxicity against human U87MG cells assessed as reduction in cell viability incubated for 72 hrs by MTT assay
A549 = experiment: Cytotoxicity against human A549 cells assessed as reduction in cell viability incubated for 72 hrs by MTT assay; settings: A549, 72 h
HEK-293T = experiment: Cytotoxicity against HEK293T cells assessed as reduction in cell viability incubated for 72 hrs by MTT assay; settings: Homo sapiens
PC-3 = experiment: Cytotoxicity against human PC3 cells assessed as reduction in cell viability incubated for 72 hrs by MTT assay; settings: PC-3, 72 h

Compound | IC50 (HT-29) [µM] | IC50 (U-87 MG) [µM] | IC50 (A549) [µM] | IC50 (HEK-293T) [µM] | IC50 (PC-3) [µM]
COc1ccc2nc(NC(=O)c3cn(-c4ccccc4)nc3-c3ccccc3)sc2c1 | > 50 | 40.6 | > 50 | > 50 | 17.5
Cc1ccc2nc(NC(=O)c3cn(-c4ccccc4)nc3-c3ccccc3)sc2c1 | > 50 | 23.2 | 26.5 | > 50 | 15.7
COc1ccc(-c2nn(-c3ccccc3)cc2C(=O)Nc2nc3ccc(F)cc3s2)cc1 | 5.56 | 8.99 | 7.56 | 15.4 | 4.93
O=C(Nc1nc2ccc(Cl)cc2s1)c1cn(-c2ccccc2)nc1-c1ccccc1 | 7.81 | 4.98 | 7.67 | 21.3 | 3.69
COc1ccc(-c2nn(-c3ccccc3)cc2C(=O)Nc2nc3ccc(OC)cc3s2)cc1 | > 50 | 5.89 | 18.9 | > 50 | 13.5
O=C(Nc1nc2ccccc2s1)c1cn(-c2ccccc2)nc1-c1ccc(Cl)cc1 | 13.7 | 11.5 | 10.3 | 39.6 | 7.75
O=C(Nc1nc2ccccc2s1)c1cn(-c2ccccc2)nc1-c1ccc(F)cc1 | 9.06 | 10.7 | 9.01 | 33.4 | 7.13
O=C(Nc1nc2ccc(F)cc2s1)c1cn(-c2ccccc2)nc1-c1ccc(Cl)cc1 | 4.97 | 7.77 | 8.86 | > 50 | 5.79
Cc1ccc2nc(NC(=O)c3cn(-c4ccccc4)nc3-c3ccc(F)cc3)sc2c1 | 22.9 | > 50 | 24.6 | > 50 | 20.5
COc1ccc2nc(NC(=O)c3cn(-c4ccccc4)nc3-c3ccc(F)cc3)sc2c1 | 33.2 | > 50 | > 50 | > 50 | 12.8
